Assay results taken from US20250186467A1, “METHODS OF TREATING MEDICAL CONDITIONS USING STAMPIDINE OR A RELATED COMPOUND” (ROME Therapeutics, Inc., priority 2022, published 2025).

Experiments:
[1] = test system: IFN-β; test: Decitabine-stimulated human PBMC assay, IFN-β; assay type: cell-based; details: PBMCs with anti-CD3/anti-CD28 and 10 μM decitabine, 5 days
Experimental: EasySep buffer (32 mL, Stem Cell, cat. #20144) was used to dilute 8 mL of LRSC buffy coat (from fresh Leukopak) with gentle mixing. The diluted buffy coat (20 mL) was transferred into each of two SepMate 50 tubes, and the tubes were filled with 15 mL of Lyphoprep (Stem Cell, ct. #07851) density gradient. The SepMate tubes were then centrifuged at 1200G for 10 minutes at room temperature with the brake on. The top layer of supernatant was collected in SepMate tubes by quickly pouring it into a new 50 mL conical tube. The PBMCs were washed with EasySep buffer×2 by centrifuging at 300G for 5 minutes. The cells were resuspended in 30 mL of EasySep and centrifuged at 100G for 5 minutes with the brake off, and the platelets were removed. The cells were then resuspended in 6 mL of 1× RBC lysis buffer (InvitroGen) and incubated at 37° C. for 5 minutes. Then, 25 mL of EasySep buffer was mixed into the tube and it was centrifuged at 300G for 5 minutes. The cells were resuspended in 10 mL of EasySep buffer and the cells were then counted with Cellometer (AO/PI). The PBMCs were resuspended in RPMI1640 (ThermoFisher)+10% FBS (HyClone)+p/s at 3×10^6/mL. The PBMCs (100 μL, 300 k PBMCs) were then seeded in a 96-well flat bottom microplate (Corning) that had been precoated with 100 μL of anti-CD3 antibody (10 μg/mL in PBS, Biolegend) or PBS at 4° C., one day before the assay was commenced. […]

[2] = test system: PBMCs; test: Decitabine-stimulated human PBMC assay, cell viability; assay type: cell-based; details: PBMCs with 10 μM decitabine, 5 days
Experimental: After 5 days, the plate was spun down at 100×G for 5 minutes. Supernatants (100 μL) was collected for interferon β (IFN-β) analysis using the MSD assay noted above, and any residual supernatant was stored at −80° C.

[3] = test system: interferon-stimulated gene (ISG) response; test: In vivo decitabine challenge model; set-up: species or system C57BL/6 mice; details: stampidine 3, 15, 75 mg/kg i.p. daily with decitabine 5 mg/kg i.p., Day 0 to Day 4; spleen, liver, terminal colon
Experimental: Twenty 9-11 week old C57BL/6 mice were acclimated to the lab for at least 5 days. Stampidine was prepared in a 20% HP-b-CD in water solution for i.p. administration. Decitabine (Sigma) was dissolved in sterile PBS (pH 7.4) and dosed within 30 minutes of preparation of the solution. Doses of both stampidine and decitabine were administered i.p. once a day, every day from Day 0 to Day 4.
On Day 0, mice were split into four groups of five mice and given their first dose of decitabine (i.p., 5 mg/kg) and stampidine. Dosing groups were:
Decitabine and stampidine were administered daily from Day 0 to Day 4. All mice were euthanized 1 hour after the last dose administration on Day 4. Spleens, liver, and terminal colon were collected, along with plasma from each animal. The fold changes in interferon-stimulated gene (ISG) expression were calculated by first normalizing to GAPDH gene using the Delta CT method. The CT (gene of interest)−CT (reference gene) was calculated to generate a delta CT for all samples. The fold change was then calculated by taking the […](Delta CT(control)−Delta CT (experimental). The control in this example was the PBS control animal group. The Taqman duplex assay was used to determine levels of GAPDH v. IFIT2.

COC(=O)[C@H](C)N[P@](=O)(OC[C@@H]1C=C[C@H](n2cc(C)c(=O)[nH]c2=O)O1)Oc1ccc(Br)cc1 [Stampidine, methyl ((S)-(4-bromophenoxy)(((2S,5R)-5-(5-methyl-2,4-dioxo-3,4-dihydropyrimidin-1(2H)-yl)-2,5-dihydrofuran-2-yl)methoxy)phosphoryl)-L-alaninate]
inhibition of IFN-β [1]: showed inhibition of IFN-β | cellular toxicity [2]: without any cellular toxicity | change in ISG response [3]: showed the change in ISG response which was most prominent in the spleen tissue
